Paper PMC3752463 (Biochemical and biophysical research communications, 2013)
Square brackets hold non-standard residues; d marks the D form. Ends that are not written are not given here.

Experiments:
CXCR4 [1] = target: T1, CXCR4 (Homo sapiens, UniProt P61073); conditions: 12G5 CXCR4 competitive binding assay
CXCR4 [2] = target: T1, CXCR4; conditions: ref [12], cited from earlier work; for IC50: read-out: IC50 (anti-CXCR4 mAb 12G5 competitive assay), previously reported, anti-CXCR4 mAb 12G5 competitive assay
HIV = conditions: ref [12]; cited from earlier work

T1 sequence (P61073 whole entry): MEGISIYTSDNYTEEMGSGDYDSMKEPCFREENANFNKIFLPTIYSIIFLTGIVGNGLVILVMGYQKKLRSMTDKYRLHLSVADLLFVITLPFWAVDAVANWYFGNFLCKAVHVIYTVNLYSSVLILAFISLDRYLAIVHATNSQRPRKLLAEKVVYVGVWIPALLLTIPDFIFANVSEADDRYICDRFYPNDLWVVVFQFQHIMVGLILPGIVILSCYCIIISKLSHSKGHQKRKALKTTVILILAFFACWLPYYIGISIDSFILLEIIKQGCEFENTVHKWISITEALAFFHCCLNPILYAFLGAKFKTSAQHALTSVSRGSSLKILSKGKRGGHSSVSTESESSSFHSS

Sequence: LGASWHRPDK [DV3]
- CXCR4 binding potency relative to DV1 (CXCR4 [1]): about two-fold less potent than DV1

Sequence: LGASWHRPDK ([dL]G[dA][dS][dW][dH][dR][dP][dD][dK]-NH2; N-terminus assumed; SMILES CC(C)C[C@@H](N)C(=O)NCC(=O)N[C@H](C)C(=O)N[C@H](CO)C(=O)N[C@H](Cc1c[nH]c2ccccc12)C(=O)N[C@H](Cc1c[nH]cn1)C(=O)N[C@H](CCCNC(=N)N)C(=O)N1CCC[C@@H]1C(=O)N[C@H](CC(=O)O)C(=O)N[C@H](CCCCN)C(N)=O) [DV3]
- IC50 (CXCR4 [2]): 440 nM

Sequence: LGASWHRPDKCCLGYQKRPLP ([dL]G[dA][dS][dW][dH][dR][dP][dD][dK][dC][dC][dL]G[dY][dQ][dK][dR][dP][dL][dP]-NH2; cysteine pairing not given here) [DV1]
- IC50 (CXCR4 [2]): 236 nM

Sequence: LGASWHRPDKCCLGYQKRPLP [DV1]
- CXCR4 binding affinity (in words), earlier work (CXCR4 [2]; in words): moderate binding affinity with CXCR4
- anti-HIV entry activity (in words) (HIV): anti-HIV entry activity
